Test results from US20080194642A1, “HIGH DOSE, LONG-ACTING ECTOPARASITICIDE FOR EXTENDED CONTROL” (Wyeth, priority 2007, published 2008).

Experiments:
[1] = tested on: cat flea, Ctenocephalides felis; assay: Duration of control in dogs treated with ectoparasiticides at up to 3x the conventional dose against the cat flea (Example 6); format: in vivo
Source text: In this evaluation, 32 mixed breed male or female dogs, aged 1 to 10 years, were used. Dogs were not treated with an ectoparasiticide for 60 days prior to the study. No drugs, baths, shampoos or pesticides were given to the dogs during the preconditioning phase or during the course of the study other than what is described in the protocol. At least 36 dogs were preconditioned for 14 days. All dogs were bathed with noninsecticidal shampoo (Day −12 to −8). On Day −7, each dog was infested with 100 unfed cat fleas, Ctenocephalides felis. On Day −5, each dog was thoroughly examined and then combed to remove and count fleas. Dogs were selected for inclusion in the study on the basis of flea retention and/or behavior. The 32 dogs with the highest flea counts were selected for the study, except for exclusion of dogs deemed not easily handled. The dogs were blocked by flea number retained, and randomly allocated within blocks into 8 groups of 4 dogs.
Applications for Groups B-H were administered using disposable syringes. Each dog received a spot of the appropriate formulation to the skin (by syringe without a needle) at the dorsal midline between the shoulder blades. Group A was left untreated. […] Observations for post-treatment adverse reactions, skin irritation and behavior of test formulations were made at four hours following administration of treatments. Thereafter, dogs were observed once daily on Days 1-14 for formulation acceptability, adverse reactions, or signs of skin irritation following treatment. Daily observations of the physical condition of the animals were made throughout the trial.
Dogs were infested with 100 adult cat fleas, Ctenocephalides felis, on Day 14 and then examined for live fleas on Day 16. The dogs were re-infested/examined on Days 28/30, 56/58, 70/72, 84/86 and then infested and examined again at 2 week intervals until efficacy waned. At each infestation, 100 unfed adult fleas were applied along the lateral midline of each dog. The negative control group (Group A) was infested before the test compound groups. Fleas were recovered by examining and combing the groups in the same order. Combs were washed and rinsed with alcohol between dogs. Plastic gloves and aprons were changed between treatment groups.
(§1) Flea counts were transformed by log (count +1), and geometric means were used to calculate percent efficacy for the treatments using (Yc−Yt)/Yc*100, where Yc and Yt equal mean counts for control and treated groups, respectively.

[2] = tested on: cat flea, Ctenocephalides felis; assay: Duration of efficacy of high doses of ectoparasiticides against the cat flea in cats (Example 5); format: in vivo
Source text: In this evaluation, 32 domestic shorthair cats of mixed sex, aged at least 6 months, were used to test the high doses of ectoparasiticides disclosed herein. Cats were free of ectoparasiticide treatment for 60 days prior to administration of the experimental treatments. No drugs, baths, shampoos, or pesticides were given to the cats during the preconditioning phase or during the course of the study other than what is described in the protocol. At least 36 cats were preconditioned for 7 days. On day −7, each cat was infested with 100 unfed cat fleas, Ctenocephalides felis. On Day −5, each cat was thoroughly examined and combed to remove and count fleas. 32 cats were ranked in descending order by flea count. From the ranking, the cats were divided into four blocks of eight cats each. The eight cats within each of the four blocks were randomly allocated to treatment groups (A-H).
Applications for groups B-H were administered using a disposable syringe. The dose was applied as a single spot on the dorsal neck at the base of the skull. Group A was left untreated. […] On Days 1 through 14 following administration of the treatments, cats were observed daily for reactions and formulation acceptability. Thereafter, cats were observed once daily for the remainder of the study. Cats were infested with 100 adult cat fleas on Day 14 then examined for fleas on Day 16. The cats were re-infested and examined again on Days 28 and 30, on Days 56 and 58 then bi-weekly until efficacy waned. At each infestation, 100 unfed adult fleas were applied along the dorsal rump of each cat. The negative control group (Group A) was infested before the test compound groups. Fleas were recovered by examining and combing the groups in the same order. Combs were washed and rinsed with alcohol between cats, and latex gloves were changed between treatment groups.
as §1

[3] = 7 mg fipronil/kg (1×) spot-on, Day 16
[4] = 7 mg fipronil/kg (1×) spot-on, Day 30
[5] = 7 mg fipronil/kg (1×) spot-on, Day 58
[6] = 7 mg fipronil/kg (1×) spot-on, Day 72
[7] = 7 mg fipronil/kg (1×) spot-on, Day 86
[8] = 7 mg fipronil/kg (1×) spot-on, Day 100
[9] = 7 mg fipronil/kg (1×) spot-on, Day 114
[10] = 21 mg fipronil/kg (3×) spot-on, Day 16
[11] = 21 mg fipronil/kg (3×) spot-on, Day 30
[12] = 21 mg fipronil/kg (3×) spot-on, Day 58
[13] = 21 mg fipronil/kg (3×) spot-on, Day 72
[14] = 21 mg fipronil/kg (3×) spot-on, Day 86
[15] = 21 mg fipronil/kg (3×) spot-on, Day 100
[16] = 7.5 mg fipronil/kg spot-on, Day 16
[17] = 7.5 mg fipronil/kg spot-on, Day 30
[18] = 7.5 mg fipronil/kg spot-on, Day 58
[19] = 7.5 mg fipronil/kg spot-on, Day 72
[20] = 7.5 mg fipronil/kg spot-on, Day 86
[21] = 7.5 mg fipronil/kg spot-on, Day 100
[22] = 22.5 mg fipronil/kg spot-on, Day 16
[23] = 22.5 mg fipronil/kg spot-on, Day 30
[24] = 22.5 mg fipronil/kg spot-on, Day 58
[25] = 22.5 mg fipronil/kg spot-on, Day 72
[26] = 22.5 mg fipronil/kg spot-on, Day 86
[27] = 22.5 mg fipronil/kg spot-on, Day 100
[28] = 10 mg imidacloprid/kg (1×) spot-on, Day 16
[29] = 10 mg imidacloprid/kg (1×) spot-on, Day 30
[30] = 10 mg imidacloprid/kg (1×) spot-on, Day 58
[31] = 10 mg imidacloprid/kg (1×) spot-on, Day 72
[32] = 10 mg imidacloprid/kg (1×) spot-on, Day 86
[33] = 30 mg imidacloprid/kg (3×) spot-on, Day 16
[34] = 30 mg imidacloprid/kg (3×) spot-on, Day 30
[35] = 30 mg imidacloprid/kg (3×) spot-on, Day 58
[36] = 30 mg imidacloprid/kg (3×) spot-on, Day 72
[37] = 30 mg imidacloprid/kg (3×) spot-on, Day 86
[38] = 10 mg imidacloprid/kg spot-on, Day 16
[39] = 10 mg imidacloprid/kg spot-on, Day 30
[40] = 10 mg imidacloprid/kg spot-on, Day 58
[41] = 10 mg imidacloprid/kg spot-on, Day 72
[42] = 10 mg imidacloprid/kg spot-on, Day 86
[43] = 10 mg imidacloprid/kg spot-on, Day 100
[44] = 30 mg imidacloprid/kg spot-on, Day 16
[45] = 30 mg imidacloprid/kg spot-on, Day 30
[46] = 30 mg imidacloprid/kg spot-on, Day 58
[47] = 30 mg imidacloprid/kg spot-on, Day 72
[48] = 30 mg imidacloprid/kg spot-on, Day 86
[49] = 30 mg imidacloprid/kg spot-on, Day 100

N#Cc1ccc(CC(=NNC(=O)Nc2ccc(OC(F)(F)F)cc2)c2cccc(C(F)(F)F)c2)cc1 (mixture of isomers) [metaflumizone, (E,Z)-2-[2-(4-cyanophenyl)-1-[3-(trifluoromethyl)phenyl]ethylidene]-N-[4-(tri-fluoromethoxy)phenyl]hydrazinecarboxamide]
% Efficacy ([1]; metaflumizone 60 mg/kg (3×) spot-on, Day 128): 96.5%

N#Cc1nn(-c2c(Cl)cc(C(F)(F)F)cc2Cl)c(N)c1[S+]([O-])C(F)(F)F (stereo not shown) [fipronil]
% Efficacy [1, 3]: 99.8%
Flea Counts/Dog/Day (Geometric Means) [1, 3]: 0.2
% Efficacy [1, 4]: 99.8%
Flea Counts/Dog/Day (Geometric Means) [1, 4]: 0.2
% Efficacy [1, 5]: 100.0%
Flea Counts/Dog/Day (Geometric Means) [1, 5]: 0.0
% Efficacy [1, 6]: 96.9%
Flea Counts/Dog/Day (Geometric Means) [1, 6]: 2.4
% Efficacy [1, 7]: 97.4%
Flea Counts/Dog/Day (Geometric Means) [1, 7]: 2.3
% Efficacy [1, 8]: 94.1%
Flea Counts/Dog/Day (Geometric Means) [1, 8]: 4.3
% Efficacy [1, 9]: 84.7%
Flea Counts/Dog/Day (Geometric Means) [1, 9]: 10.2
% Efficacy [1, 10]: 100.0%
Flea Counts/Dog/Day (Geometric Means) [1, 10]: 0.0
% Efficacy [1, 11]: 100.0%
Flea Counts/Dog/Day (Geometric Means) [1, 11]: 0.0
% Efficacy [1, 12]: 90.7%
Flea Counts/Dog/Day (Geometric Means) [1, 12]: 7.5
% Efficacy [1, 13]: 85.4%
Flea Counts/Dog/Day (Geometric Means) [1, 13]: 11.4
% Efficacy [1, 14]: 48.0%
Flea Counts/Dog/Day (Geometric Means) [1, 14]: 45.3
% Efficacy [1, 15]: 39.5%
Flea Counts/Dog/Day (Geometric Means) [1, 15]: 44.1
% Efficacy [2, 16]: 97.7%
Flea comb count, G.M. [2, 16]: 1.2
% Efficacy [2, 17]: 96.4%
Flea comb count, G.M. [2, 17]: 2.3
% Efficacy [2, 18]: 78.8%
Flea comb count, G.M. [2, 18]: 11.5
% Efficacy [2, 19]: 81.1%
Flea comb count, G.M. [2, 19]: 12.5
% Efficacy [2, 20]: 66.9%
Flea comb count, G.M. [2, 20]: 19.2
% Efficacy [2, 21]: 14.3%
Flea comb count, G.M. [2, 21]: 50.6
% Efficacy [2, 22]: 97.8%
Flea comb count, G.M. [2, 22]: 1.2
% Efficacy [2, 23]: 100.0%
Flea comb count, G.M. [2, 23]: 0.0
% Efficacy [2, 24]: 93.8%
Flea comb count, G.M. [2, 24]: 3.4
% Efficacy [2, 25]: 94.7%
Flea comb count, G.M. [2, 25]: 3.5
% Efficacy [2, 26]: 64.9%
Flea comb count, G.M. [2, 26]: 20.3
% Efficacy [2, 27]: 31.5%
Flea comb count, G.M. [2, 27]: 40.4

O=[N+]([O-])/N=C1\NCCN1Cc1ccc(Cl)nc1 [imidacloprid]
% Efficacy [1, 28]: 100.0%
Flea Counts/Dog/Day (Geometric Means) [1, 28]: 0.0
% Efficacy [1, 29]: 100.0%
Flea Counts/Dog/Day (Geometric Means) [1, 29]: 0.0
% Efficacy [1, 30]: 98.1%
Flea Counts/Dog/Day (Geometric Means) [1, 30]: 1.5
% Efficacy [1, 31]: 80.3%
Flea Counts/Dog/Day (Geometric Means) [1, 31]: 15.4
% Efficacy [1, 32]: 88.9%
Flea Counts/Dog/Day (Geometric Means) [1, 32]: 9.7
% Efficacy ([1]; 10 mg imidacloprid/kg (1×) spot-on, Day 100): 78.3%
% Efficacy ([1]; 10 mg imidacloprid/kg (1×) spot-on, Day 114): 52.6%
% Efficacy [1, 33]: 100.0%
Flea Counts/Dog/Day (Geometric Means) [1, 33]: 0.0
% Efficacy [1, 34]: 100.0%
Flea Counts/Dog/Day (Geometric Means) [1, 34]: 0.0
% Efficacy [1, 35]: 100.0%
Flea Counts/Dog/Day (Geometric Means) [1, 35]: 0.0
% Efficacy [1, 36]: 97.0%
Flea Counts/Dog/Day (Geometric Means) [1, 36]: 2.4
% Efficacy [1, 37]: 96.4%
Flea Counts/Dog/Day (Geometric Means) [1, 37]: 3.1
% Efficacy ([1]; 30 mg imidacloprid/kg (3×) spot-on, Day 100): 96.8%
% Efficacy ([1]; 30 mg imidacloprid/kg (3×) spot-on, Day 114): 96.6%
% Efficacy ([1]; 30 mg imidacloprid/kg (3×) spot-on, Day 128): 94.5%
% Efficacy [2, 38]: 100.0%
Flea comb count, G.M. [2, 38]: 0.0
% Efficacy [2, 39]: 98.5%
Flea comb count, G.M. [2, 39]: 1.0
% Efficacy [2, 40]: 81.4%
Flea comb count, G.M. [2, 40]: 10.0
% Efficacy [2, 41]: 84.8%
Flea comb count, G.M. [2, 41]: 10.0
% Efficacy [2, 42]: 71.1%
Flea comb count, G.M. [2, 42]: 16.7
% Efficacy [2, 43]: 43.5%
Flea comb count, G.M. [2, 43]: 33.3
% Efficacy [2, 44]: 100.0%
Flea comb count, G.M. [2, 44]: 0.0
% Efficacy [2, 45]: 99.5%
Flea comb count, G.M. [2, 45]: 0.3
% Efficacy [2, 46]: 100.0%
Flea comb count, G.M. [2, 46]: 0.0
% Efficacy [2, 47]: 99.0%
Flea comb count, G.M. [2, 47]: 0.7
% Efficacy [2, 48]: 96.0%
Flea comb count, G.M. [2, 48]: 2.3
% Efficacy [2, 49]: 91.4%
Flea comb count, G.M. [2, 49]: 5.1
